Values of other authors as cited in US20260216276A1, “COMPOSITIONS AND METHODS FOR MODULATING COMPLEMENT ACTIVITY” (UCB HOLDINGS, INC., priority 2019, published 2026).
Starred links: 1 amine or outer side, 2 acyl side, 3 side chain; linkers in the order of their positions; H or OH if unused. Positions of bridges follow the written chain, without caps; N, C: chain ends. Non-standard residues stand in square brackets, D forms with d. Residues, ends and D or L forms follow the SMILES beside them. Groups on a side chain read outwards from the residue. *: point of attachment. PEG24 = NCCOCCOCCOCCOCCOCCOCCOCCOCCOCCOCCOCCOCCOCCOCCOCCOCCOCCOCCOCCOCCOCCOCCOCCOCCC(=O)O; X1 = N=C(N)NCCC[C@H](N[*:1])C(=O)C[C@@H](Cc1ccccc1)C(=O)[*:2]; Trp(7-aza) = N[C@@H](Cc1c[nH]c2ncccc12)C(=O)O; γGlu = O=C(O)[C@H](CCC(=O)[*:2])N[*:1]; Palmitoyl = CCCCCCCCCCCCCCCC(=O)*; NMeD = CN[C@@H](CC(=O)O)C(=O)O; Chg = N[C@H](C(=O)O)C1CCCCC1; Tle = CC(C)(C)[C@H](N)C(=O)O

How the values were obtained:
[1] = test system: surface-bound C5b-9 or soluble membrane attack complex (sC5b-9); details: unlike eculizumab; cited from earlier work
[2] = test system: complement component 5 (C5); details: including p.R885>H/C; cited from earlier work

## CCCCCCCCCCCCCCCC(=O)N[C@@H](CCC(=O)NCCOCCOCCOCCOCCOCCOCCOCCOCCOCCOCCOCCOCCOCCOCCOCCOCCOCCOCCOCCOCCOCCOCCOCCOCCC(=O)NCCCC[C@H](NC(=O)[C@@H](NC(=O)[C@@H]1CCCN1C(=O)[C@H](Cc1ccc(O)cc1)NC(=O)[C@H](CCC(=O)[O-])NC(=O)[C@H](Cc1c[nH]c2ncccc12)NC(=O)[C@H](Cc1ccc(O)cc1)NC(=O)[C@@H](NC(=O)[C@H](CC(=O)[O-])N(C)C(=O)[C@@H]1CC(=O)NCCCC[C@H](NC(C)=O)C(=O)N[C@@H](C(C)C)C(=O)N[C@@H](CCC(=O)O)C(=O)N[C@@H](CCCNC(=N)N)C(=O)C[C@@H](Cc2ccccc2)C(=O)N1)C(C)(C)C)C1CCCCC1)C(=O)[O-])C(=O)[O-].[Na+].[Na+].[Na+].[Na+] [zilucoplan] (Ac-KVE[X1]D[NMeD][Tle]Y[Trp(7-aza)]EYP[Chg]K([PEG24-γGlu-Palmitoyl])-OH; lactam 1-5)
[1]
  binding to surface-bound C5b-9 or sC5b-9: does not bind
[2]
  binding and inhibitory activities in the presence of clinically relevant human C5 polymorphisms: not affected
